From article PMC10783034, “Pharmacokinetic and pharmacodynamic evaluation of the atypical tetracyclines chelocardin and amidochelocardin in murine infection models” (Microbiology Spectrum, 2023)
In brackets after ≈: the same amount, converted by molar mass. Entries after “also recorded” stand apart in the source; their conditions may differ.

Columns and labels:
[1] = Histopathological analysis of kidneys and livers after high-dose IV administration; type: in vivo, mice; details: 30 mg/kg IV; for histopathological examination of liver / kidney tissue discoloration: 24 hours after treatment; for overall acute toxicity assessment: high-dose groups
Description: The sustained high urine concentrations observed for CDCHD at 15 mg/kg IV raised the concern that accumulation might occur. We therefore performed histopathological analysis of livers and kidneys. A dose of 30 mg/kg of CHD and CDCHD was administered intravenously, and livers and kidneys were examined 24 hours after treatment to investigate signs of acute toxicity.
CHD and CDCHD were administered in single PK studies at the doses of 15 mg/kg and 30 mg/kg IV, at 15 mg/kg SC, and 15 mg/kg PO. Up to 25 µL of blood was collected from the lateral tail vein (n = 3 per time point) and time points t = 0.5, 1, 2, 4, and 8 hours. For 15 mg/kg IV- and PO-administered compounds, blood was also collected at time points t = 24 and 48 hours. For IV- and SC-administered compounds, blood was also collected at t = 0.25 hours. At t = 24 hours (15 mg/kg SC, 30 mg/kg IV) or 72 hours (15 mg/kg IV and PO), animals were euthanized to collect blood. At every blood collection, time point spontaneous urine was collected as well. Whole blood was collected into Eppendorf tubes coated with 0.5 M EDTA and immediately spun down at 15,870× g for 10 min at 4°C. Then, plasma was transferred into a new Eppendorf tube and stored at −80°C until analysis.
Approximately 3 µm thick sections of formalin-fixed, paraffin-embedded samples of liver and kidney were analyzed blinded, and randomized to the experimental groups by a trained veterinarian. […] Kidneys were analyzed for changes in the glomeruli (not found), tubular dilation (1 = mild or up to 20% of tubuli affected, 2 = moderate or 25-40% of tubuli affected, 3 = severe 50% or more), and inflammatory infiltrate in the pelvis (1 = mild, 2 = moderate, 3 = severe).

[2] = test system: K. pneumoniae ATCC 43816; set-up: method as in PMID 32962088; details: cited from earlier work
[3] = test system: K. pneumoniae ATCC 43816; assay: Neutropenic thigh infection model in CD-1 mice; type: in vivo
Description: (§1) The inoculum for K. pneumoniae ATCC 43816 was prepared freshly as described previously to yield 1 × 10^4 cfu/mL ([56]). The inoculum of the E. coli ATCC 25922 was diluted from a frozen stock to 1.4 × 10^6 cfu/ml. N = 6 animals per group were used for both tested strains. N = 4 mice were used in the pre-treatment group in the neutropenic thigh infection model with E. coli ATCC 25922. Mice were rendered neutropenic by administration of 150 mg/kg and 100 mg/kg cyclophosphamide intraperitoneally on days −4 and −1, respectively. On the day of infection (day 0), mice received 30 µL of the inoculum of K. pneumoniae ATCC 43816 into each lateral thigh under isoflurane anesthesia, corresponding to 6 × 10^2 cfu/mouse. In the model with E. coli, mice received 50 µL of the inoculum of E. coli into each lateral thigh under isoflurane anesthesia, corresponding to 1.4 × 10^5 cfu/mouse. Whilst still under anesthesia, mice were administered a dose of Buprenorphine (0.03 mg/kg) subcutaneously for pain relief. 24 hours after infection, mice were euthanized by slowly introducing CO2 and cardiac puncture to remove blood from the heart immediately after death. Kidneys and thighs were aseptically removed. 24 hours after infection, the clinical score of every individual animal was assessed. Clinical scoring comprises the assessment of different parameters such as spontaneous behavior, posture, appearance, and provoked behavior. Each parameter was assessed with a score of 0 to 3 (ascending severity from 0 to 3). The humane endpoint was reached when the clinical score of a single parameter was 3 or if the total clinical score was higher than 8. Whole blood was collected into Eppendorf tubes coated with 0.5 M EDTA. Organs were homogenized in 0.9% NaCl solution. Organs and blood were plated onto agar plates in duplicates in serial dilutions and incubated at 37°C for 24 hours. 25 µL per dilution of the homogenized organ was spotted onto agar plates. In addition, 1 mL of homogenized organ is streaked onto an agar plate in technical duplicates. If no single colony is observed then, this would result in 0 cfu/mL. Thus, the threshold of detection is 0 log10 cfu/g. The groups used in the different neutropenic thigh infection models are found in Tables S4 through S7. In brief, levofloxacin with 3.3 mg/kg TID IP was used as a positive control antibiotic for the K. pneumoniae model, whereas ciprofloxacin with 20 mg/kg BID IV was used for the E. coli model, respectively. The rationale for TID dosing was based on the PK/PD index of fAUC/MIC for fluoroquinolones ([57] [–] [59]). […] Moreover, CHD and CDCHD were administered at 10 mg/kg SC QID (t = 1,3,5,7 hours), 15 mg/kg SC TID (t = 1,4,7 hours), and 50 mg/kg SC QD (t = 1 hour) (Tables S5 and S6). In the E. coli neutropenic thigh infection model, CHD and CDCHD, respectively, were administered at 50 mg/kg IV QD (t = 1 hour) and 15 mg/kg IV BID (t = 1 and 6 hours) (Table S7).
(§2) For the neutropenic thigh infection model with E. coli ATCC 25922, the thighs were regarded as two independent infection sites throughout the experiment. For statistical analysis, individual thighs (left and right) were treated as separate samples although these were not completely independent values. For the neutropenic thigh infection model with K. pneumoniae ATCC 43816, the individual thighs (left and right) were treated as one sample. For the efficacy models, the non-parametric Kruskal-Wallis test was used with GraphPad Prism 9.4.1. For the ascending urinary tract infection model, an ordinary one-way ANOVA with Dunnett’s multiple comparison test was used with GraphPad Prism 9.4.1.

[4] = test system: E. coli ATCC 25922; assay: Neutropenic thigh infection model in CD-1 mice; type: in vivo; details: for bacterial burden in the thigh relative to stasis (pre-treatment group): 50 mg/kg IV QD; for tolerability: doses up to 50 mg/kg IV in the neutropenic thigh infection model
Description: as §1, §2

[5] = test system: E. coli ATCC 25922; set-up: method as in PMID 32962088; details: cited from earlier work
[6] = 24 hours after infection, CHD/CDCHD 10 mg/kg SC QD or BID, levofloxacin 3.3 mg/kg IP TID, vs vehicle
[7] = higher-dose studies: 10 mg/kg SC QID, 15 mg/kg SC TID, 50 mg/kg SC QD, levofloxacin 3.3 mg/kg IP TID

SMILES | histopathological examination of liver [1] | kidney tissue discoloration [1] | overall acute toxicity assessment [1] | minimal bactericidal concentration (MBC) [2] [µg/mL] | bacterial burden in blood [3, 6] | bacterial burden in the kidney [3, 7] | bacterial burden in the thigh relative to stasis (pre-treatment group) [4] | tolerability [4] | MIC [5] [µg/mL] | also measured
Cc1ccc2c(C)c3c(c(O)c2c1O)C(=O)C1(O)C(=O)C(C(N)=O)=C(O)C(N)C1C3 (stereo not drawn) [CDCHD, 2-carboxamido-2-deacetyl-chelocardin] | sporadic extramedullary erythropoiesis and thrombopoiesis; also recorded: a moderate reduction of glycogen, moderate anisokaryosis, and a moderate amount of double-nucleated cells | yellow tissue discoloration | no immediate toxicity red flags | 8 (≈ 19.4 µM) | The same was found in blood | reduced bacterial burden in the kidney to apparent sterilization | did not reduce bacterial load back to stasis | well tolerated | 2 (≈ 4.85 µM) | bacterial burden in the kidney ([3]; 10 mg/kg SC BID, vs vehicle control, similar to levofloxacin, not statistically significant): a reduction of bacterial burden was observed in the kidney; bacterial burden in blood ([3]; 10 mg/kg SC QID, 15 mg/kg SC TID, 50 mg/kg SC QD (all three groups)): a reduction of bacterial burden was observed; bacterial burden in the thigh ([3]; 50 mg/kg SC QD): a statistically significant reduction of bacterial burden in the thigh was observed; reduction of bacterial burden in the thigh ([3]; 50 mg/kg SC QD): approximately one; bacterial burden in kidney ([4]; both IV groups (15 mg/kg IV BID and 50 mg/kg IV QD)): pronounced reduction of bacterial burden
CC(=O)C1=C(O)[C@H](N)[C@@H]2Cc3c(c(O)c4c(O)c(C)ccc4c3C)C(=O)[C@]2(O)C1=O [CHD, chelocardin] | sporadic extramedullary erythropoiesis and thrombopoiesis | yellow tissue discoloration | no immediate toxicity red flags | 16 (≈ 38.9 µM) | The same was found in blood | no statistically significant effect was observed | reduction of bacterial burden to levels below stasis | well tolerated | 2 (≈ 4.86 µM) | bacterial burden in the thigh ([3]; 10 mg/kg SC QID, 15 mg/kg SC TID, 50 mg/kg SC QD (all three dose levels)): no effect was observed in the thigh; bacterial burden in the kidney ([3]; 50 mg/kg SC QD): a slight reduction of bacterial burden; bacterial burden in blood ([3]; 50 mg/kg SC QD, similar range as levofloxacin, statistical significance missed): the bacterial burden was reduced; bacterial burden in kidney ([4]; 15 mg/kg IV BID): moderate reduction; bacterial burden in the thigh ([4]; 15 mg/kg IV BID): reduced bacterial burden in the thigh; kill in the thigh compared to the pre-treatment group ([4]; 50 mg/kg IV): ~1 log10-unit; reduction in the thigh compared to the vehicle ([4]; 50 mg/kg IV): 5 log10-unit
